From patent US7709223B2, “Method for detecting bacteria with chromogenic substrates for β-D-ribofuranosidase” (priority 2001, dated 2010)
Counter-ions that a name gives are not always drawn.

Legend:
[1] = system: Acinetobacter lwoffii; test: Mixed culture on solid medium with substrate and ferric ion; type: cell-based; settings: mixed culture with Escherichia coli
Method: (§1) The limitations of using a substrate which generates a diffusible end product after hydrolysis on a solid medium are known by those skilled in the art. […] For example a culture plate was prepared containing solid medium and the chromogenic enzyme substrate 3′,4′-dihydroxyflavone-4′-β-D-ribofuranoside along with ferric ion. A culture containing roughly equal numbers of Escherichia coli (β-D-ribofuranosidase positive) and Acinetobacter lwoffii (β-D-ribofuranosidase negative) was grown on the medium. […] The A. lwoffii colonies were colourless. It was possible to differentiate the two species even when the colonies were virtually coincident.

[2] = system: Escherichia coli; test: as above; type: cell-based; settings: mixed culture with Acinetobacter lwoffii
Method: as §1

O=c1cc(-c2ccc(OC3OC(CO)C(O)C3O)c(O)c2)oc2ccccc12 [DHF-riboside, 3′,4′-Dihydroxyflavone-4′-β-D-ribofuranoside sodium salt]
Colour of A. lwoffii colonies [1]: colourless
Colour of E. coli colonies [2]: intense black colonies
